This is an account of results in patent publication US7560473B2 (Institute of Pharmacology and Toxicology Academy of …, priority 2001, dated 2009).

In assay [1] the test system is spontaneously hypertensive rats. Kind of assay: Acute antihypertensive effects in conscious spontaneously hypertensive rats. The class given is in vivo. The note with it: po mg/kg: compound 1 3, pinacidil 3, nifedipine 10, bisoprolol 60, captopril 40, means ± SD, 9-13 rats; for heart rates at 1 h / heart rates at 3 h / heart rates at 5 h / heart rates at 9 h / heart rates at 12 h / heart rates at 24 h / heart rates base value: in bpm (unit assumed); for SBP base value / heart rates base value: base value before administration. The source says:
Biological activity experiment 2. The acute antihypertensive effects of compound 1 in conscious spontaneously hypertensive rats.
The methods of biological activity experiment 2 were described by Long Chao-Liang et al: Long Chao-Liang, Wang Hai, Xiao Wen-Bin. Effects of pinacidil on, hypertensive vascular remodeling. Chin J Pharmacol Toxicol 1997; 11(1):42-46.

In assay [2] the test system is rats anesthetized with pentobarbital sodium. As to the kind of experiment: Effects on blood pressure, heart rate, cardiac contraction and dilation in rats anesthetized with pentobarbital sodium. The class given is in vivo, Wistar rats. On the set-up: unit not given here. The note with it: change after injection through femoral vein, '+' = increase, all others = decrease; for MBP: mean blood pressure: n = 3~5, doses mg/kg: 2, 8, 12: 10, 3-7, 9-11, 40-44: 5; for DBP: diastolic blood pressure / HR: heart rate / LVSP: left ventricular systolic pressure / SBP: systolic blood pressure / Vpm: the physiological velocity of contractile element shorting / −dp/dtmax: the maximal rate of the decrease of left ventricular pressure: mean, n = 3~5, doses mg/kg: 2, 8, 12: 10, 3-7, 9-11, 40-44: 5. As to the method: Biological activity experiment 1. The effects of 16 compounds represented by formula I on blood pressure, heart rate, cardiac contraction and dilation in rats anesthetized with pentobarbital sodium.
The methods of biological activity experiment 1 were as follows: Male Wistar rats, weighing 280±30 g were purchased from the experimental animal center of Academy of Military Medical Sciences. Rats were anesthetized with pentobarbital sodium (45 mg/kg) by peritoneal injection. A PE50 polyethylene catheter was inserted into the left ventricle through right carotid artery for cardiac function measurement with a pressure energe exchanger, wherein the signal is put into a SMUP-PC biosignal processing system. Cardiac functional parameters such as HR, LVSP, +dp/dtmax, −dp/dtmax and Vpm were recorded. Another two PE50 polyethylene catheters were inserted into the right femoral artery and vein respectively for blood pressure measurement wherein the artery cathether was linked to a four-channel physiology recorder (RM-6000) through a MPU-0.5A Type pressure energe exchanger, which recorded SBP, DBP and MBP, while the vein catheter was used for compound administration. The methods were described by Liu Wei et al: Liu Wei, Wang Hai, Xiao Wen-Bin. […] Bull Acad Mil Med Sci 1996;20(4):245˜248.

Regarding `CC(C)NCC(O)COc1ccc(COCCOC(C)C)cc1` (stereo not shown) [bisoprolol], in assay [1], the “SBP at 1 h after administration” value was 211 ± 7 mmHg, the “heart rates at 1 h” value was found to be 283 ± 17, the “SBP at 3 h after administration” value is reported as 240 ± 7 mmHg and the “heart rates at 3 h” value was 278 ± 16. Besides, in assay [1], the “SBP at 5 h after administration” value is reported as 242 ± 4 mmHg, the “heart rates at 5 h” value came to 335 ± 34, the “SBP at 9 h after administration” value is listed as 242 ± 3 mmHg and the “heart rates at 9 h” value is on record as 320 ± 36. In assay [1], the “SBP at 12 h after administration” value was 243 ± 3 mmHg, the “heart rates at 12 h” value was 341 ± 28, the “SBP at 24 h after administration” value was 242 ± 6 mmHg and the “heart rates at 24 h” value is 360 ± 7. In assay [1], the SBP base value is 242 ± 5 mmHg and the “heart rates base value” stood at 355 ± 17.
As for `C[C@H](CS)C(=O)N1CCC[C@H]1C(=O)O` [captopril], in assay [1], the “SBP at 1 h after administration” value came to 207 ± 9 mmHg, the “heart rates at 1 h” value came out at 380 ± 12, the “SBP at 3 h after administration” value was determined as 213 ± 11 mmHg and the “heart rates at 3 h” value stood at 370 ± 24. In assay [1], the “SBP at 5 h after administration” value was 233 ± 10 mmHg, the “heart rates at 5 h” value came out at 366 ± 22, the “SBP at 9 h after administration” value is recorded as 242 ± 4 mmHg and the “heart rates at 9 h” value is listed as 355 ± 12. Moreover, in assay [1], the “SBP at 12 h after administration” value is 241 ± 5 mmHg, the “heart rates at 12 h” value stood at 355 ± 29, the “SBP at 24 h after administration” value amounted to 243 ± 4 mmHg and the “heart rates at 24 h” value was found to be 364 ± 12. In assay [1], the SBP base value was 243 ± 4 mmHg and the “heart rates base value” is reported as 350 ± 17.
`CC(C)NC(C)C(C)C` (stereo not shown) [compound 7]: in assay [2], the “MBP: mean blood pressure” value is recorded as 34, the “DBP: diastolic blood pressure” value is 34, the “HR: heart rate” value was 46 and the “LVSP: left ventricular systolic pressure” value is on record as 184. For the same compound, in assay [2], the “SBP: systolic blood pressure” value came out at 34, the “Vpm: the physiological velocity of contractile element shorting” value (“Vpm: the physiological velocity” below) is on record as 1.08 and the “−dp/dtmax: the maximal rate of the decrease of left ventricular pressure” value was 226.
As to `CNC(C)C` [compound 8], in assay [2], the “MBP: mean blood pressure” value was 26, the “DBP: diastolic blood pressure” value stood at 24, the “HR: heart rate” value is recorded as 53 and the “LVSP: left ventricular systolic pressure” value came out at 121. In assay [2], the “SBP: systolic blood pressure” value is listed as 28, the “Vpm: the physiological velocity” value is recorded as 1.45 and the “−dp/dtmax: the maximal rate of the decrease of left ventricular pressure” value is listed as 124.
For `CCC(C)N` (stereo not shown) [compound 10], in assay [2], the “MBP: mean blood pressure” value worked out at 4, the “DBP: diastolic blood pressure” value is recorded as 5, the “HR: heart rate” value is recorded as 20 and the “LVSP: left ventricular systolic pressure” value is listed as 21. In assay [2], the “SBP: systolic blood pressure” value is reported as 2, the “Vpm: the physiological velocity” value is on record as 0.25 and the “−dp/dtmax: the maximal rate of the decrease of left ventricular pressure” value is on record as 27.
Take `CCC(C)(C)NC` [compound 11]: in assay [2], the “MBP: mean blood pressure” value is reported as 13, the “DBP: diastolic blood pressure” value is 10, the “HR: heart rate” value stood at 19 and the “LVSP: left ventricular systolic pressure” value was “+159”. Also, in assay [2], the “SBP: systolic blood pressure” value was 18, the “Vpm: the physiological velocity” value is recorded as 0.1 and the “−dp/dtmax: the maximal rate of the decrease of left ventricular pressure” value is listed as “+86”.
With `CCC(C)N` (stereo not shown) [compound 12], in assay [2], the “MBP: mean blood pressure” value worked out at 24, the “DBP: diastolic blood pressure” value is 23, the “HR: heart rate” value was 39 and the “LVSP: left ventricular systolic pressure” value turned out to be 112. Besides, in assay [2], the “SBP: systolic blood pressure” value is 25, the “Vpm: the physiological velocity” value was 0.58 and the “−dp/dtmax: the maximal rate of the decrease of left ventricular pressure” value is given as 129.
For the compound `CC(C)C(C)(C)NC(=O)[C@@H](N)Cc1c[nH]c2ccccc12` [compound 40, N-tryptophanyl-2,3-dimethyl-2-butylamine], in assay [2], the “MBP: mean blood pressure” value is “+0.7”, the “DBP: diastolic blood pressure” value turned out to be 0, the “HR: heart rate” value was 6 and the “LVSP: left ventricular systolic pressure” value was “+23”. For the same compound, in assay [2], the “SBP: systolic blood pressure” value is given as “+2”, the “Vpm: the physiological velocity” value is reported as “+0.1” and the “−dp/dtmax: the maximal rate of the decrease of left ventricular pressure” value is “+6”.
With `CC[C@H](C)[C@H](N)C(=O)NC(C)(C)C(C)C` [compound 41, N-isoleucyl-2,3-dimethyl-2-butylamine], in assay [2], the “MBP: mean blood pressure” value is listed as “+1”, the “DBP: diastolic blood pressure” value is “+1”, the “HR: heart rate” value was 16 and the “LVSP: left ventricular systolic pressure” value is on record as “+4”. Also, in assay [2], the “SBP: systolic blood pressure” value was “+2”, the “Vpm: the physiological velocity” value is on record as 0 and the “−dp/dtmax: the maximal rate of the decrease of left ventricular pressure” value is given as “+2”.
With `CC(C)C[C@H](N)C(=O)NC(C)(C)C(C)C` [compound 42, N-leucyl-2,3-dimethyl-2-butylamine], in assay [2], the “MBP: mean blood pressure” value was “+2”, the “DBP: diastolic blood pressure” value is listed as “+2”, the “HR: heart rate” value was “+1” and the “LVSP: left ventricular systolic pressure” value is “+10”. Also, in assay [2], the “SBP: systolic blood pressure” value is “+2”, the “Vpm: the physiological velocity” value is given as “+0.18” and the “−dp/dtmax: the maximal rate of the decrease of left ventricular pressure” value was “+13”.
For the compound `CC(C)C(C)(C)NC(=O)[C@@H](N)Cc1ccccc1` [compound 43, N-phenylalanyl-2,3-dimethyl-2-butylamine], in assay [2], the “MBP: mean blood pressure” value is “+2”, the “DBP: diastolic blood pressure” value is “+1”, the “HR: heart rate” value was “+10” and the “LVSP: left ventricular systolic pressure” value is “+31”. In assay [2], the “SBP: systolic blood pressure” value was “+3”, the “Vpm: the physiological velocity” value is “+0.13” and the “−dp/dtmax: the maximal rate of the decrease of left ventricular pressure” value is recorded as “+10”.
